Test results reported in patent publication US20240116948A1, “PYRIDO OXAZINE DERIVATIVES AS ALK5 INHIBITORS” (CHIESI FARMACEUTICI S.P.A., priority 2020, published 2024).

What follows are molecules tested against human ALK5 (Homo sapiens (Human), UniProt P36897) (assay: ADP-GLO Kinases assay, inhibition of ALK5 kinase activity). Details: Table 12; compounds classified in term of potency; ATP at Km, 25° C.; read-out: ALK5 IC50.
Assay type: biochemical
Protocol: The enzymatic activity of compounds of the present invention was monitored measuring the formation of ADP using the ADP-GLO Kinases assay. Following the incubation of the purified enzyme, a substrate and ATP, the produced ADP was converted into ATP, which in turn was converted into light by Ultra-Glo Luciferase. The luminescent signal positively correlated with ADP amount and kinase activity. Briefly, the kinase reaction was performed by incubating 2.6 nM of the purified, commercially available human ALK5 (recombinant TGF 31 N-term GST-tagged, 80-end), a final concentration of TGFβ1 peptide 94.5 μM (Promega, T36-58) and ultra-pure ATP (Promega V915B). The ATP concentration was set at the Km value (concentration of substrate which permits the enzyme to achieve half maximal velocity (Vmax)) of ALK5 (5 μM). All reactions/incubations were performed at 25° C. Compound and ALK5 kinase were mixed and incubated for 15 mins. Reactions were initiated by addition of ATP at a final concentration in the assay of […]. After an incubation of 150 min, the reaction was stopped, and ADP production detected with ADP-Glo kit according to manufacturer's indications. The assay was performed in 384-well format and was validated using a selection of reference compounds that was tested in 11 point concentration-response curve.
Compounds of the examples C1 and C2 were tested in the same in vitro assay described above.

human ALK5, sequence (P36897 80-503 limits assumed): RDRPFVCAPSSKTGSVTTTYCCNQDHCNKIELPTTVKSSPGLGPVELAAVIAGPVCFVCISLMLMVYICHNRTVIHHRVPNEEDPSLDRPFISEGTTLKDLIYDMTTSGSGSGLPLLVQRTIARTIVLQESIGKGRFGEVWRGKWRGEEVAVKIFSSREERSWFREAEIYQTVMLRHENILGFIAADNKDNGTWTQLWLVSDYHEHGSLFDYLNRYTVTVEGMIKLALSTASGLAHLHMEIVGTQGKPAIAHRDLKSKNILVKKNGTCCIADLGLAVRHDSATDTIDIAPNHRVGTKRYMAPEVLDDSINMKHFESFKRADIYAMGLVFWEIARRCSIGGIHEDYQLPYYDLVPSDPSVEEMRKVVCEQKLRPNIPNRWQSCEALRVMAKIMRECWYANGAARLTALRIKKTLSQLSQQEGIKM

| SMILES | IC50 |
| --- | --- |
| CN(C)CCCNC(=O)c1cncc(-c2cc(-c3cc(Cl)ccc3F)nc3c2OCCN3)c1 [Example 21, 5-[6-(5-chloro-2-fluorophenyl)-2H,3H,4H-pyrido[3,2-b][1,4]oxazin-8-yl]-N-[3-(dimethylamino)propyl]pyridine-3-carboxamide] | ≤ 1 nM |
| Fc1ccc(Cl)cc1-c1cc(-c2cccnc2)c2c(n1)NCCO2 [Example 1, 3-[6-(5-chloro-2-fluorophenyl)-2H,3H,4H-pyrido[3,2-b][1,4]oxazin-8-yl]pyridine] | 5 to 10 nM |
| CN1CCN(CCC(=O)Nc2cncc(-c3cc(-c4cc(Cl)ccc4F)nc4c3OCCN4)c2)C(=O)C1 [Example 47, N-{5-[6-(5-chloro-2-fluorophenyl)-2H,3H,4H-pyrido[3,2-b][1,4]oxazin-8-yl]pyridin-3-yl}-3-(4-methyl-2-oxopiperazin-1-yl)propanamide] | 5 to 10 nM |
| O=C(CCN(CCO)CCO)Nc1cncc(-c2cc(-c3cc(Cl)ccc3F)nc3c2OCCN3)c1 [Example 43, 3-[bis(2-hydroxyethyl)amino]-N-{5-[6-(5-chloro-2-fluorophenyl)-2H,3H,4H-pyrido[3,2-b][1,4]oxazin-8-yl]pyridin-3-yl}propanamide] | 1 to 5 nM |
| O=C(CCN1CCCCC1)Nc1cncc(-c2cc(-c3cc(Cl)ccc3F)nc3c2OCCN3)c1 [Example 18, N-{5-[6-(5-chloro-2-fluorophenyl)-2H,3H,4H-pyrido[3,2-b][1,4]oxazin-8-yl]pyridin-3-yl}-3-(piperidin-1-yl)propanamide] | ≤ 1 nM |
| CNCCC(=O)Nc1cncc(-c2cc(-c3cc(Cl)ccc3F)nc3c2OCCN3)c1 [Example 22, N-{5-[6-(5-chloro-2-fluorophenyl)-2H,3H,4H-pyrido[3,2-b][1,4]oxazin-8-yl]pyridin-3-yl}-3-(methylamino)propanamide] | ≤ 1 nM |
| O=C(CCN1CCNCC1)Nc1cncc(-c2cc(-c3cc(Cl)ccc3F)nc3c2OCCN3)c1 [Example 16, N-{5-[6-(5-chloro-2-fluorophenyl)-2H,3H,4H-pyrido[3,2-b][1,4]oxazin-8-yl]pyridin-3-yl}-3-(piperazin-1-yl)propanamide] | 1 to 5 nM |
| NC(=O)c1cncc(-c2cc(-c3cc(Cl)ccc3F)nc3c2OCCN3)c1 [Example 6, 5-[6-(5-chloro-2-fluorophenyl)-2H,3H,4H-pyrido[3,2-b][1,4]oxazin-8-yl]pyridine-3-carboxamide] | 1 to 5 nM |
| O=C(NCCCN1CCNCC1)c1cncc(-c2cc(-c3cc(Cl)ccc3F)nc3c2OCCN3)c1 [Example 28, 5-[6-(5-chloro-2-fluorophenyl)-2H,3H,4H-pyrido[3,2-b][1,4]oxazin-8-yl]-N-[3-(piperazin-1-yl)propyl]pyridine-3-carboxamide] | 1 to 5 nM |
| CNCCNC(=O)c1cncc(-c2cc(-c3cc(Cl)ccc3F)nc3c2OCCN3)c1 [Example 23, 5-[6-(5-chloro-2-fluorophenyl)-2H,3H,4H-pyrido[3,2-b][1,4]oxazin-8-yl]-N-[2-(methylamino)ethyl]pyridine-3-carboxamide] | 1 to 5 nM |
| Fc1ccc(Cl)cc1-c1cc(-c2cnc3[nH]cnc3c2)c2c(n1)NCCO2 [Example 14, 6-(5-chloro-2-fluorophenyl)-8-{3H-imidazo[4,5-b]pyridin-6-yl}-2H,3H,4H-pyrido[3,2-b][1,4]oxazine] | 5 to 10 nM |

Continued, values first:

| IC50 | SMILES |
| --- | --- |
| 5 to 10 nM | Fc1ccc(Cl)cc1-c1cc(-c2cncc(OCC3CCCO3)c2)c2c(n1)NCCO2 (stereo not drawn) [Example 34, 3-[6-(5-chloro-2-fluorophenyl)-2H,3H,4H-pyrido[3,2-b][1,4]oxazin-8-yl]-5-[(oxolan-2-yl)methoxy]pyridine] |
| 1 to 5 nM | O=C(CCCN1CCNCC1)Nc1cncc(-c2cc(-c3cc(Cl)ccc3F)nc3c2OCCN3)c1 [Example 33, N-{5-[6-(5-chloro-2-fluorophenyl)-2H,3H,4H-pyrido[3,2-b][1,4]oxazin-8-yl]pyridin-3-yl}-4-(piperazin-1-yl)butanamide] |
| 5 to 10 nM | Fc1ccc(Cl)cc1-c1cc(-c2cnc3[nH]ccc3c2)c2c(n1)NCCO2 [Example 13, 6-(5-chloro-2-fluorophenyl)-8-{1H-pyrrolo[2,3-b]pyridin-5-yl}-2H,3H,4H-pyrido[3,2-b][1,4]oxazine] |
| 1 to 5 nM | Fc1ccc(Cl)cc1-c1cc(-c2cncc3ccccc23)c2c(n1)NCCO2 [Example 2, 4-[6-(5-chloro-2-fluorophenyl)-2H,3H,4H-pyrido[3,2-b][1,4]oxazin-8-yl]isoquinoline] |
| 5 to 10 nM | O=C(NCCN1CCOCC1)c1cncc(-c2cc(-c3cc(Cl)ccc3F)nc3c2OCCN3)c1 [Example 11, 5-[6-(5-chloro-2-fluorophenyl)-2H,3H,4H-pyrido[3,2-b][1,4]oxazin-8-yl]-N-[2-(morpholin-4-yl)ethyl]pyridine-3-carboxamide] |
| 5 to 10 nM | Cc1cccc(-c2cc(-c3cnc4[nH]ncc4c3)c3c(n2)NCCO3)n1 [Example 35, 2-methyl-6-(8-{1H-pyrazolo[3,4-b]pyridin-5-yl}-2H,3H,4H-pyrido[3,2-b][1,4]oxazin-6-yl)pyridine] |

Same assay, conditions: Table 13; comparative examples, same in vitro assay; read-out: ALK5 IC50

| IC50 | SMILES |
| --- | --- |
| 1710 nM | Oc1ccc(-c2cc(-c3cc(Cl)ccc3F)nc3c2OCCN3)cc1 [Example C2, 4-[6-(5-chloro-2-fluorophenyl)-2H,3H,4H-pyrido[3,2-b][1,4]oxazin-8-yl]phenol] |
| 10000 nM | COc1ccc(-c2cc(-c3cc(Cl)ccc3F)nc3c2OCCN3)cc1 [Example C1, 6-(5-chloro-2-fluorophenyl)-8-(4-methoxyphenyl)-2H,3H,4H-pyrido[3,2-b][1,4]oxazine] |

Same assay, conditions: summary statements in running text; read-out: IC50 / potency on ALK5

| IC50 | SMILES |
| --- | --- |
| > 1700 nM | Oc1ccc(-c2cc(-c3cc(Cl)ccc3F)nc3c2OCCN3)cc1 [Example C2, 4-[6-(5-chloro-2-fluorophenyl)-2H,3H,4H-pyrido[3,2-b][1,4]oxazin-8-yl]phenol] |
| > 1700 nM | COc1ccc(-c2cc(-c3cc(Cl)ccc3F)nc3c2OCCN3)cc1 [Example C1, 6-(5-chloro-2-fluorophenyl)-8-(4-methoxyphenyl)-2H,3H,4H-pyrido[3,2-b][1,4]oxazine] |
